In series [1] the target is T1, protease performing the cleavage of synthetic human CCK-33 to CCK-22 (metalloprotease, identified as Cym1p) (Saccharomyces cerevisiae, UniProt P32898).
T1 construct: endogenous in cells; host or cells: S. cerevisiae strain LJY123 (APE1, APE2, APE3 deleted; derived from Y14953), clarified crude cell extract
T1 sequence (P32898 17-989): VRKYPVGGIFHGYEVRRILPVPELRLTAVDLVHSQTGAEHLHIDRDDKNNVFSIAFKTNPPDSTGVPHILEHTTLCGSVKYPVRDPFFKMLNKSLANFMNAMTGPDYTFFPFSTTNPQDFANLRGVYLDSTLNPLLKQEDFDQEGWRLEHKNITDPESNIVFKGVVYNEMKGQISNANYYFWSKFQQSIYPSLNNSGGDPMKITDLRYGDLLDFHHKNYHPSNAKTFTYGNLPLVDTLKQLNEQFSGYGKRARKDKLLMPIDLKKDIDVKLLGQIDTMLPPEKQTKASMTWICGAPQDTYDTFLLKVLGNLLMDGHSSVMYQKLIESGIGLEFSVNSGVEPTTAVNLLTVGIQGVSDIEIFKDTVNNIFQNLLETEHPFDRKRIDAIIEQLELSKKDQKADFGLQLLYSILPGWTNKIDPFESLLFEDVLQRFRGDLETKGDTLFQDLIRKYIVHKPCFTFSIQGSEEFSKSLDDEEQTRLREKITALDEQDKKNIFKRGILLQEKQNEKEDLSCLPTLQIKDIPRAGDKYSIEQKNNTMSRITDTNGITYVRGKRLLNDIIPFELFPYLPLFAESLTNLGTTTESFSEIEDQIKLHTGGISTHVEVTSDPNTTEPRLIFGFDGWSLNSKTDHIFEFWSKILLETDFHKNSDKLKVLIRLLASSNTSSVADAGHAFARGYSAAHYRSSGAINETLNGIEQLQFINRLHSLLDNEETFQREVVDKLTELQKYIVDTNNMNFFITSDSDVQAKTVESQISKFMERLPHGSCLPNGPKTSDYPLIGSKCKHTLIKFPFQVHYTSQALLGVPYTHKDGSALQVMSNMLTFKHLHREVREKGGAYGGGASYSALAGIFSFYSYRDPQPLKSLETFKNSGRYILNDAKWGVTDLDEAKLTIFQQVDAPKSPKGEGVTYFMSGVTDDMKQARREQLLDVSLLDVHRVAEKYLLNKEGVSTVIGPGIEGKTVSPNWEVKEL
Description: In vitro protease assay: cleavage of synthetic CCK-33 to CCK-22 by crude yeast cell extract (LJY123). Type of series: biochemical. Conditions: extract from LJY123; 1 mM EDTA, 1 mM 1,10-orthophenanthroline; 30° C., 1 h. Here is the method:
FIG. 4. In vitro protease assay including inhibitors and activators. The fraction of CCK-22 was calculated from the immuno-reactivity using Ab 89009 divided by the total amount of mature and N-terminal extended CCK-22 measured with Ab 89009 after trypsin treatment. A, Effect of different inhibitors. B, Protease reactivation by addition of 1.2 mM divalent metal ions to extracts where the activity had been inhibited with 1 mM EDTA. The data represent mean±SD of three independent experiments.
FIG. 5. Protease reactivation by Zn^2+ and Mn^2+. […] The activity was measured as the fraction of matured CCK-22 after 30, 60 and 120 min incubation. The fraction of CCK-22 was calculated from the immuno-reactivity using Ab 89009 divided by the total amount of mature and N-terminal extended CCK-22 measured with Ab 89009 after trypsin treatment. […]
Two different antisera were used to determine the amount of processed cholecystokinin. […] The fraction of CCK processed to CCK-22 is calculated by division of the immuno-reactivity measured with Ab 89009 with the amount measured with the same antibody after the sample was treated with trypsin to measure the total amount of N-terminal extended CCK-22. […]
The nature of the protease performing the cleavage of synthetic human CCK-33 to CCK-22 was analysed by inclusion of a number of different inhibitors with the extract from LJY123. […]

A further series has as its target T2, Ac-CCK-33-Gly, P06307.
T2 chain: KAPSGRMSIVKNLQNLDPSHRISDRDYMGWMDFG

On to `c1cnc2c(c1)ccc1cccnc12` [1,10 ortho-phenanthroline], for which the “inhibition of proteolysis of CCK-33 to CCK-22” value in series [1] is reported as “inhibited”. On the same count and under the same terms, next, `O=C(O)CN(CCN(CC(=O)O)CC(=O)O)CC(=O)O` [EDTA]: “inhibited”.

B1: Saccharomyces cerevisiae Cym1p (protein)
chain: T1 sequence (P32898 17-989)
As for B1, the “rate of CCK-22 production in the in vitro protease assay” value in the series with Ac-CCK-33-Gly, P06307 was “Expression of CYM1 on a multicopy plasmid enhanced the rate of CCK-22 production several fold”.

For the origin of these results see patent US20060121565A1, “Methods for increasing the production of a recombinant polypeptide from a host cell” (CYMIP A/S, priority 2002, published 2006).
